The values that follow are results of earlier work, collected in patent US9895311B2, “Foam-forming compositions and methods for delivering an active to a body cavity” (Pharmiva AB, priority 2014, dated 2018).

Data set [1] deals with anaerobic bacteria involved in vaginal and urinary tube infections. The settings on record: in 7 seconds, laboratory conditions (Block 1983).
A further data set has as its system several species. The following applies: even at low pH (Attassi, Servin 2010).

On to `OO` [hydrogen peroxide], for which, in data set [1], the log reduction is 2 log. Also, the “Concentration required for inhibition” value in the data set with several species was no less than 20 mM.
